Test results: patent publication US20120220562A1, “Anti-Viral Compounds” (ABBOTT LABAORATORIES, priority 2011, published 2012)

What follows are compounds tested on HCV 1b-Con1 replicon (assay: HCV 1b-Con1 replicon assay in the presence of 5% FBS). Settings: Hepatitis C virus.
Assay type: cell-based

First: COC(=O)N[C@H](C(=O)N1CCC[C@H]1c1nc2ccc([C@H]3CC[C@H](c4ccc5nc([C@@H]6CCCN6C(=O)[C@@H](NC(=O)OC)C(C)C)[nH]c5c4)N3c3ccc(S(C)(=O)=O)c(F)c3)cc2[nH]1)C(C)C [Example 2.7, methyl {(2S)-1-[(2S)-2-{6-[(2R,5R)-1-[3-fluoro-4-(methylsulfonyl)phenyl]-5-{2-[(2S)-1-{(2S)-2-[(methoxycarbonyl)amino]-3-methylbutanoyl}pyrrolidin-2-yl]-1H-benzimidazol-6-yl}pyrrolidin-2-yl]-1H-benzimidazol-2-yl}pyrrolidin-1-yl]-3-methyl-1-oxobutan-2-yl}carbamate]
Second: COC(=O)N[C@H](C(=O)N1CCC[C@H]1c1nc2cc([C@H]3CC[C@H](c4ccc5nc([C@@H]6CCCN6C(=O)[C@@H](NC(=O)OC)C(C)C)[nH]c5c4)N3c3ccc(F)c(F)c3)ccc2[nH]1)C(C)C [Example 4.9, methyl {(2S)-1-[(2S)-2-{5-[(2R,5R)-1-(3,4-difluorophenyl)-5-{2-[(2S)-1-{(2S)-2-[(methoxycarbonyl)amino]-3-methylbutanoyl}pyrrolidin-2-yl]-1H-benzimidazol-6-yl}pyrrolidin-2-yl]-1H-benzimidazol-2-yl}pyrrolidin-1-yl]-3-methyl-1-oxobutan-2-yl}carbamate]
The EC50 of the first is higher: 1000 to 10000 pM for the first, less than 100 pM for the second. The second is the more potent here.

`COC(=O)N[C@H](C(=O)N1[C@H](c2nc3cc([C@H]4CC[C@H](c5cc6nc([C@@H]7C[C@@H]8CCC[C@@H]8N7C(=O)[C@@H](NC(=O)OC)C7CCOCC7)[nH]c6cc5F)N4c4cc(F)c(N5CCCCC5)c(F)c4)c(F)cc3[nH]2)C[C@@H]2CCC[C@@H]21)C1CCOCC1` [Example 3.41, dimethyl ({(2R,5R)-1-[3,5-difluoro-4-(piperidin-1-yl)phenyl]pyrrolidine-2,5-diyl}bis{(6-fluoro-1H-benzimidazole-5,2-diyl)(2S,3aS,6aS)hexahydrocyclopenta[b]pyrrole-2,1(2H)-diyl[(1S)-2-oxo-1-(tetrahydro-2H-pyran-4-yl)ethane-2,1-diyl]})biscarbamate] and `COC(=O)N[C@H](C(=O)N1[C@H](c2nc3cc([C@H]4CC[C@H](c5ccc6[nH]c([C@@H]7C[C@@H]8CCC[C@@H]8N7C(=O)[C@@H](NC(=O)OC)C(C)C)nc6c5)N4c4cc(F)c(N5CCC(c6ccccc6)CC5)c(F)c4)ccc3[nH]2)C[C@@H]2CCC[C@@H]21)C(C)C` [Example 3.28, methyl {(2S)-1-[(2S,3aS,6aS)-2-{5-[(2R,5R)-1-[3,5-difluoro-4-(4-phenylpiperidin-1-yl)phenyl]-5-{2-[(2S,3aS,6aS)-1-{(2S)-2-[(methoxycarbonyl)amino]-3-methylbutanoyl}octahydrocyclopenta[b]pyrrol-2-yl]-1H-benzimidazol-5-yl}pyrrolidin-2-yl]-1H-benzimidazol-2-yl}hexahydrocyclopenta[b]pyrrol-1(2H)-yl]-3-methyl-1-oxobutan-2-yl}carbamate] cannot be ordered by EC50: less than 100 pM for the first, less than 100 pM for the second.

`COC(=O)N[C@H](C(=O)N1CCC[C@H]1c1nc2cc([C@H]3CC[C@H](c4ccc5[nH]c([C@@H]6CCCN6C(=O)[C@@H](NC(=O)OC)C(C)C)nc5c4)N3c3cc(F)c(N4CC(C)(C)C4)c(F)c3)ccc2[nH]1)C(C)C` [Example 4.24, methyl {(2S)-1-[(2S)-2-{5-[(R2R,5R)-1-[4-(3,3-dimethylazetidin-1-yl)-3,5-difluorophenyl]-5-{2-[(2S)-1-{(2S)-2-[(methoxycarbonyl)amino]-3-methylbutanoyl}pyrrolidin-2-yl]-1H-benzimidazol-5-yl}pyrrolidin-2-yl]-1H-benzimidazol-2-yl}pyrrolidin-1-yl]-3-methyl-1-oxobutan-2-yl}carbamate] showed an EC50 of less than 100 pM.
